Data as given in US10927105B1 (Lundbeck La Jolla Research Center, Inc., priority 2017, dated 2021).

Molecular target: MAGL (Homo sapiens (Human), UniProt Q99685)
Assay: In vitro competitive activity-based protein profiling (human prefrontal cortex membrane fractions, FP-Rh probe), MAGL band
Conditions: read-out: MAGL IC50 (μM) (human); human prefrontal cortex membrane fractions

MAGL, sequence (Q99685 whole entry): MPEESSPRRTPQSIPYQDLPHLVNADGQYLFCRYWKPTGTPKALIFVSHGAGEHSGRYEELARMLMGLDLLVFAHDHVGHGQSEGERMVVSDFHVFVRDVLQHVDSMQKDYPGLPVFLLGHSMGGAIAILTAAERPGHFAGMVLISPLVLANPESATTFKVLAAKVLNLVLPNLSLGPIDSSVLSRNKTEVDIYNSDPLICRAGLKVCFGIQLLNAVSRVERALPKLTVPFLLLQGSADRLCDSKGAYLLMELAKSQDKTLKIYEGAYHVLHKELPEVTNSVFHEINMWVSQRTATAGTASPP

| SMILES | IC50 [µM] |
| --- | --- |
| O=C(O)c1ccn(C(=O)N2C[C@H]3C[C@H](Oc4cccc(-c5ccccn5)c4)C[C@H]3C2)n1 [Example 242, 1-(trans-5-(3-(pyridin-2-yl)phenoxy)-octahydrocyclopenta-[c]pyrrole-2-carbonyl)-1H-pyrazole-3-carboxylic acid] | < 0.1 |
| O=C(O)c1ccn(C(=O)N2C[C@H]3C[C@H](Oc4ccccc4-c4cccnc4)C[C@H]3C2)n1 [Example 244, 1-(trans-5-(2-(pyridin-3-yl)phenoxy)-octahydrocyclopenta-[c]pyrrole-2-cathonyl)-1H-pyrazole-3-carboxylic acid] | < 0.1 |
| Cc1cc(-c2ccccc2)ccc1CN1CCN(C(=O)n2ccc(C(=O)O)n2)[C@H](C)C1 [Example 245, (R)-1-(2-methyl-4-((3-methyl-[1,1′-biphenyl]-4-yl)methyl)-piperazine-1-carbonyl)-1H-pyrazole-3-carboxylic acid] | < 0.1 |
| Cc1ccc(Oc2cccc(CN3CCN(C(=O)n4ccc(C(=O)O)n4)CC3)c2)cc1 [Example 251, 1-(4-(3-(p-tolyloxy)benzyl)-piperazine-1-carbonyl)-1H-pyrazole-3-carboxylic acid] | < 0.1 |
| Cc1cn(C(=O)N2C[C@H]3C[C@H](OCc4cc(F)cc(Cl)c4)C[C@H]3C2)nc1C(=O)O [Example 252, 1-(trans-5-((3-chloro-5-fluorobenzyl)oxy)-octahydrocyclopenta-[c]pyrrole-2-carbonyl)-4-methyl-1H-pyrazole-3-carboxylic acid] | < 0.1 |
| C[C@@H]1CN(Cc2ccc(-c3ccccc3)cc2F)CCN1C(=O)n1ccc(C(=O)O)n1 [Example 253, (R)-1-(4-((3-fluoro-[1,1′-biphenyl]-4-yl)methyl)-2-methylpiperazine-1-carbonyl)-1H-pyrazole-3-carboxylic acid] | < 0.1 |
| Cc1cc(O[C@H]2C[C@@H]3CN(C(=O)n4ccc(C(=O)O)n4)C[C@@H]3C2)ccc1C(F)(F)F [Example 254, 1-(trans-5-(3-methyl-4-(trifluoromethyl)-phenoxy)-octahydrocyclopenta-[c]pyrrole-2-carbonyl)-1H-pyrazole-3-carboxylic acid] | < 0.1 |
| C[C@@H]1C[C@H](N(C)Cc2cccc(C(F)(F)F)c2)CCN1C(=O)n1ccc(C(N)=O)n1 [Example 257, 1-((2R,4R)-2-methyl-4-(methyl(3-(trifluoromethyl)-benzyl)amino)-piperidine-1-carbonyl)-1H-pyrazole-3-carboxamide] | < 0.1 |
| CN(Cc1cccc(C(F)(F)F)c1)C1(C)CCN(C(=O)n2ccc(C(N)=O)n2)CC1 [Example 258] | < 0.1 |
| C[C@H]1C[C@H](N(C)Cc2cccc(C(F)(F)F)c2)CCN1C(=O)n1ccc(C(N)=O)n1 [Example 259, 1-((2S,4R)-2-methyl-4-(methyl(3-(trifluoromethyl)-benzyl)amino)-piperidine-1-carbonyl)-1H-pyrazole-3-carboxamide] | < 0.1 |
| C[C@@H]1C[C@@H](N(C)Cc2cccc(C(F)(F)F)c2)CCN1C(=O)n1ccc(C(N)=O)n1 [Example 260, 1-((2R,4S)-2-methyl-4-(methyl(3-(trifluoromethyl)-benzyl)amino)-piperidine-1-carbonyl)-1H-pyrazole-3-carboxamide] | < 0.1 |
| O=C(O)c1ccn(C(=O)N2C[C@H]3C[C@H](Oc4cccc(-c5nccs5)c4)C[C@H]3C2)n1 [Example 261, 1-(trans-5-(3-(thiazol-2-yl)phenoxy)-octahydrocyclopenta-[c]pyrrole-2-carbonyl)-1H-pyrazole-3-carboxylic acid] | < 0.1 |
| O=C(O)c1ccn(C(=O)N2CCN(Cc3cccc(Oc4ccc(F)cn4)c3)CC2)n1 [Example 266, 1-(4-(3-((5-fluoropyridin-2-yl)oxy)benzyl)-piperazine-1-carbonyl)-1H-pyrazole-3-carboxylic acid] | < 0.1 |
| O=C(O)c1ccn(C(=O)N2C[C@H]3C[C@H](Oc4ccccc4C4CCOCC4)C[C@H]3C2)n1 [Example 268, 1-(trans-5-(2-(tetrahydro-2H-pyran-4-yl)phenoxy)-octahydrocyclopenta-[c]pyrrole-2-carbonyl)-1H-pyrazole-3-carboxylic acid] | < 0.1 |
| O=C(O)c1ccn(C(=O)N2CCN(Cc3cc(Cl)cc(-c4cncnc4)c3)CC2)n1 [Example 269, 1-(4-(3-chloro-5-(pyrimidin-5-yl)benzyl)-piperazine-1-carbonyl)-1H-pyrazole-3-carboxylic acid] | < 0.1 |
| C[C@H]1CN(Cc2cc(Cl)cc(C(F)(F)F)c2)CCN1C(=O)n1ccc(C(N)=O)n1 [Example 271, (S)-1-(4-(3-chloro-5-(trifluoromethyl)-benzyl)-2-methylpiperazine-1-carbonyl)-1H-pyrazole-3-carboxamide] | < 0.1 |
| C[C@@H]1CN(Cc2cc(Cl)cc(C(F)(F)F)c2)CCN1C(=O)n1ccc(C(N)=O)n1 [Example 272, (R)-1-(4-(3-chloro-5-(trifluoromethyl)-benzyl)-2-methylpiperazine-1-carbonyl)-1H-pyrazole-3-carboxamide] | < 0.1 |

| SMILES | IC50 [µM] |
| --- | --- |
| O=C(O)c1ccn(C(=O)N2CCN(Cc3ccc(Cl)c(-c4nccs4)c3)CC2)n1 [Example 274, 1-(4-(4-chloro-3-(thiazol-2-yl)benzyl)-piperazine-1-carbonyl)-1H-pyrazole-3-carboxylic acid] | < 0.1 |
| O=C(O)c1ccn(C(=O)N2CCC(OCc3cc(Cl)cc(C(F)(F)F)c3)CC2)n1 [Example 275, 1-(4-((3-chloro-5-(trifluoromethyl)-benzyl)oxy)-piperidine-1-carbonyl)-1H-pyrazole-3-carboxylic acid] | < 0.1 |
| O=C(O)c1ccn(C(=O)N2CCC(OCc3ccc(Cl)c(C(F)(F)F)c3)CC2)n1 [Example 276, 1-(4-((4-chloro-3-(trifluoromethyl)-benzyl)oxy)-piperidine-1-carbonyl)-1H-pyrazole-3-carboxylic acid] | < 0.1 |
| O=C(O)c1ccn(C(=O)N2C[C@H]3C[C@H](OCc4cccc(-c5ccccc5)c4)C[C@H]3C2)n1 [Example 278, 1-(trans-5-([1,1′-biphenyl]-3-ylmethoxy)-octahydrocyclopenta-[c]pyrrole-2-carbonyl)-1H-pyrazole-3-carboxylic acid] | < 0.1 |
| Cc1cn(C(=O)N2C[C@H]3C[C@H](Oc4cccc(-c5ccccc5)c4)C[C@H]3C2)nc1C(=O)O [Example 280, 1-(trans-5-([1,1′-biphenyl]-3-yloxy)-octahydrocyclopenta-[c]pyrrole-2-carbonyl)-4-methyl-1H-pyrazole-3-carboxylic acid] | < 0.1 |
| COc1cc(-c2ccccc2)ccc1CN1CCN(C(=O)n2ccc(C(=O)O)n2)[C@H](C)C1 [Example 283, (R)-1-(4-((3-methoxy-[1,1′-biphenyl]-4-yl)methyl)-2-methylpiperazine-1-carbonyl)-1H-pyrazole-3-carboxylic acid] | < 0.1 |
| NC(=O)c1ccn(C(=O)N2CCC3(CCN(Cc4cccc(C(F)(F)F)c4)C3)CC2)n1 [Example 284, 1-(2-(3-(trifluoromethyl)-benzyl)-2,8-diazaspiro[4.5]-decane-8-carbonyl)-1H-pyrazole-3-carboxamide] | < 0.1 |
| O=C(O)c1ccn(C(=O)N2CCC3(CCN(Cc4cccc(Cl)c4Cl)C3)CC2)n1 [Example 286, 1-(2-(2,3-dichlorobenzyl)-2,8-diazaspiro[4.5]-decane-8-carbonyl)-1H-pyrazole-3-carboxylic acid] | < 0.1 |
| Cc1c(CO[C@@H]2C[C@@H]3CN(C(=O)n4ccc(C(=O)O)n4)C[C@@H]3C2)cccc1C(F)(F)F [Example 289, 1-(cis-5-((2-methyl-3-(trifluoromethyl)-benzyl)oxy)-octahydrocyclopenta-[c]pyrrole-2-carbonyl)-1H-pyrazole-3-carboxylic acid] | < 0.1 |
| Cc1cn(C(=O)N2C[C@H]3C[C@H](OCc4cccc(C(F)(F)F)c4)C[C@H]3C2)nc1C(=O)O [Example 290, 4-methyl-1-(trans-5-((3-(trifluoromethyl)-benzyl)oxy)-octahydrocyclopenta-[c]pyrrole-2-carbonyl)-1H-pyrazole-3-carboxylic acid] | < 0.1 |
| C[C@@H]1CN(Cc2ccc(-c3ccccc3)cc2Cl)CCN1C(=O)n1ccc(C(=O)O)n1 [Example 291, (R)-1-(4-((3-chloro-[1,1′-biphenyl]-4-yl)methyl)-2-methylpiperazine-1-carbonyl)-1H-pyrazole-3-carboxylic acid] | < 0.1 |
| O=C(O)c1nn(C(=O)N2C[C@H]3C[C@H](OCc4cc(F)cc(Cl)c4)C[C@H]3C2)cc1Cl [Example 296, 4-chloro-1-(trans-5-((3-chloro-5-fluorobenzyl)oxy)-octahydrocyclopenta-[c]pyrrole-2-carbonyl)-1H-pyrazole-3-carboxylic acid] | < 0.1 |
| C[C@@H]1CN(Cc2ccc(Cl)c(-c3nccs3)c2)CCN1C(=O)n1ccc(C(=O)O)n1 [Example 299, (R)-1-(4-(4-chloro-3-(thiazol-2-yl)benzyl)-2-methylpiperazine-1-carbonyl)-1H-pyrazole-3-carboxylic acid] | < 0.1 |
| Cc1cc(CN2CCCC23CCN(C(=O)n2ccc(C(=O)O)n2)CC3)cc(C(F)(F)F)c1 [Example 303, 1-(1-(3-methyl-5-(trifluoromethyl)-benzyl)-1,8-diazaspiro[4.5]-decane-8-carbonyl)-1H-pyrazole-3-carboxylic acid] | < 0.1 |
| O=C(O)c1nn(C(=O)N2C[C@H]3C[C@H](Oc4cccc(-c5ccccc5)c4)C[C@H]3C2)cc1Cl [Example 304, 1-(trans-5-([1,1′-biphenyl]-3-yloxy)-octahydrocyclopenta-[c]pyrrole-2-carbonyl)-4-chloro-1H-pyrazole-3-carboxylic acid] | < 0.1 |
| Cc1cn(C(=O)N2C[C@H]3C[C@H](OCc4cccc(C(F)(F)F)c4C)C[C@H]3C2)nc1C(=O)O [Example 306, 4-methyl-1-(trans-5-((2-methyl-3-(trifluoromethyl)-benzyl)oxy)-octahydrocyclopenta-[c]pyrrole-2-carbonyl)-1H-pyrazole-3-carboxylic acid] | < 0.1 |
